Measured values: publication PMC6100475, “Development and Validation of a HPLC-MS/MS Method for Simultaneous Determination of Twelve Bioactive Compounds in Epimedium: Application to a Pharmacokinetic Study in Rats” (Molecules : A Journal of Synthetic Chemistry and Natural …, 2018)

What was measured:
[1] = Pharmacokinetic study in rats after oral administration of Epimedium extract (HPLC-MS/MS of plasma); type: in vivo, Male Sprague-Dawley rats; settings: rat plasma, single oral dose of Epimedium extract 10 g/kg; for AUC(0-inf) / half-life / AUC / MRT / MRT inf: male, Sprague-Dawley; for AUC(0-inf) / half-life / AUC / MRT / MRT inf / Cmax1 / Tmax1: n = 6; for AUC: read-out: AUC(0-tn); for MRT: read-out: MRT(0-tn); for MRT inf: read-out: MRT(0-∞); for Cmax2 / Tmax2: n = 6, second peak
Experimental: An Agilent 1200 Series HPLC system, which consisted of a binary pump (G1312A), an auto-sampler (G1367B), an online degasser unit (G1322A), along with temperature-controlled column compartment (G1316A), was used for the analysis. The twelve compounds and IS were separated on a CORTECS®C18 column (4.6 mm × 150 mm, 2.7 μm) maintained at 30 °C with the mobile phase consisted of acetonitrile (A) and 0.1% (v/v) formic acid (B). The flow rate was 0.3 mL/min. The gradient elution was as follows: 0–4 min, 20–50% A; 4–5 min, 50–60% A; 5–15 min, 60–70% A. The injection volume was 5 μL.
The tandem mass spectrometry was performed on a triple-quadrupole mass spectrometer equipped with an electrospray ionization (ESI) source (Agilent G6430A system). Nitrogen gas served as the nebulizer, drying, and collision gas. Analytes were monitored by SRM in negative mode with the electrospray ionization parameters optimized as follows: ion spray voltage of −4000 V, capillary temperature of 350 °C, auxiliary nitrogen pressure of 20 psi, drying gas flow of 9 L/min. The mass spectrometric parameters of precursor ion, product ion, collision energy (CE) and fragmentor (Frag) for analytes are listed in Table 6. Both the collision energy and the fragmentor were optimized for each compound by infusion of the standard solutions of methanol to mass spectrometry directly. The peak in sample was recognized as the target compound if the retention time, precursor ion, and product ion are same as the stand. For each analyte, the most abundant product ion was chosen for quantification. All analytes were quantified using the 6-point calibration curve. The peak areas were used for quantification following an internal algorithm. For each batch of samples processed and analyzed, the determined concentration of each compound in the QC samples, as quantified by the standard curves, was required to fall within ±15% of the known concentration for the data to be included in the final analysis.
Male Sprague-Dawley rats (220 ± 10) g were obtained from the Beijing HUAFUKANG Bioscience Co., Inc. (Beijing, China). Six male rats were acclimatized to the facilities for a week and fasted for 12 h, but allowed free access to water, before dosing. The Epimedium extract was suspended in 0.5% carboxymethyl cellulose sodium (CMC-Na) aqueous solution and given to each rat by oral administration at a single dose of 10 g/kg. Blood samples (250 μL) were collected from the fossa orbitalis of rats at 0 (before dosing), 0.03, 0.08, 0.17, 0.25, 0.5, 1, 2, 4, 6, 8, 10, 12 and 24 h after dosing. Then, the blood samples were centrifuged at 6000 g for 10 min to obtain the plasma, and the plasma was removed to another EP tube and frozen at −70 °C until analysis. The rat plasma concentration–time data of 12 analytes were computed by the software “Drug and Statistics 1.0” (DAS 1.0)

[2] = parameters: method as in PMID 20705408; settings: previous reports ref 19; cited from earlier work

AUC(0-inf) [1] | half-life [1] | AUC [1] | MRT [1] | MRT inf [1] | Cmax1 [1] | Tmax1 [1] | Cmax2 [1] | Tmax2 [1] | SMILES | bimodal phenomenon of plasma concentration–time curve [2]
355 ± 144 ng·h/mL | 6.93 ± 2.94 h | 246 ± 133 ng·h/mL | 11.5 ± 1.99 h | 16.5 ± 3.06 h | 6.87 ± 4.58 ng/mL | 0.18 ± 0.03 h | 29.17 ± 7.70 ng/mL | 10.67 ± 1.03 h | CC(C)=CCc1c(O)cc(O)c2c(=O)c(OC3OC(C)C(O)C(O)C3O)c(-c3ccc(O)cc3)oc12 (stereo not shown) [baohuoside II] | 
1680 ± 599 ng·h/mL | 13.2 ± 4.8 h | 1450 ± 616 ng·h/mL | 10.8 ± 1.21 h | 15.7 ± 4.1 h | 65.20 ± 33.56 ng/mL | 0.38 ± 0.14 h | 170.73 ± 66.97 ng/mL | 10.00 ± 1.79 h | COc1ccc(-c2oc3c(CC=C(C)C)c(O)cc(O)c3c(=O)c2O[C@@H]2O[C@@H](C)[C@H](O)[C@@H](O)[C@H]2O)cc1 [baohuoside I] | bimodal phenomenon
886 ± 377 ng·h/mL | 0.45 ± 0.3 h | 880 ± 365 ng·h/mL | 3.85 ± 1.28 h | 3.91 ± 1.32 h | 540.28 ± 225.18 ng/mL | 0.19 ± 0.05 h |  |  | O=C(/C=C/c1ccc(O)c(O)c1)O[C@@H]1C[C@](O)(C(=O)O)C[C@@H](O)[C@H]1O [chlorogenic acid] | 
404 ± 169 ng·h/mL | 0.53 ± 0.24 h | 398 ± 171 ng·h/mL | 3.75 ± 1.91 h | 3.82 ± 2.48 h | 269.77 ± 114.07 ng/mL | 0.19 ± 0.05 h |  |  | O=C(/C=C/c1ccc(O)c(O)c1)O[C@H]1[C@H](O)C[C@](O)(C(=O)O)C[C@H]1O [cryptochlorogenic acid] | 
600 ± 219 ng·h/mL | 12.5 ± 6.85 h | 550 ± 199 ng·h/mL | 10.8 ± 2.33 h | 14.1 ± 3.98 h | 82.79 ± 7.61 ng/mL | 0.22 ± 0.04 h | 59.34 ± 26.24 ng/mL | 9.33 ± 0.94 h | COc1ccc(-c2oc3c(CC=C(C)C)c(OC4OC(CO)C(O)C(O)C4O)cc(O)c3c(=O)c2OC2OC(C)C(O)C(O)C2OC2OC(CO)C(O)C(O)C2O)cc1 (stereo not shown) [epimedin A] | bimodal phenomenon
1070 ± 212 ng·h/mL | 3.64 ± 3.68 h | 946 ± 250 ng·h/mL | 6.98 ± 1.14 h | 8.37 ± 2.39 h | 316.73 ± 59.06 ng/mL | 0.19 ± 0.07 h | 129.90 ± 77.04 ng/mL | 7.67 ± 0.75 h | COc1ccc(-c2oc3c(CC=C(C)C)c(OC4OC(CO)C(O)C(O)C4O)cc(O)c3c(=O)c2OC2OC(C)C(O)C(O)C2OC2OCC(O)C(O)C2O)cc1 (stereo not shown) [epimedin B] | bimodal phenomenon
919 ± 215 ng·h/mL | 17.9 ± 8.23 h | 850 ± 269 ng·h/mL | 9.33 ± 2.34 h | 12.5 ± 2.59 h | 135.22 ± 31.26 ng/mL | 0.22 ± 0.04 h | 103.20 ± 33.10 ng/mL | 7.67 ± 0.75 h | COc1ccc(-c2oc3c(CC=C(C)C)c(OC4OC(CO)C(O)C(O)C4O)cc(O)c3c(=O)c2OC2OC(C)C(O)C(O)C2OC2OC(C)C(O)C(O)C2O)cc1 (stereo not shown) [epimedin C] | 
325 ± 209 ng·h/mL | 0.41 ± 0.19 h | 323 ± 205 ng·h/mL | 2.71 ± 0.79 h | 2.75 ± 0.97 h | 350.28 ± 195.96 ng/mL | 0.16 ± 0.05 h |  |  | COc1ccc(-c2oc3c(CC=C(C)C)c(O[C@@H]4O[C@H](CO)[C@@H](O)[C@H](O)[C@H]4O)cc(O)c3c(=O)c2O[C@@H]2O[C@@H](C)[C@H](O)[C@@H](O)[C@H]2O)cc1 [icariin] | 
4000 ± 970 ng·h/mL | 17.8 ± 8.25 h | 3680 ± 875 ng·h/mL | 9.86 ± 0.75 h | 12.5 ± 1.72 h | 411.40 ± 110.77 ng/mL | 0.18 ± 0.03 h | 275.67 ± 89.36 ng/mL | 10.67 ± 1.63 h | COc1ccc2c(c1O)-c1c(O)c(OC)cc3c1[C@H](C2)[N+](C)(C)CC3 [magnoflorine] | 
269 ± 70.9 ng·h/mL | 0.64 ± 0.27 h | 264 ± 68.2 ng·h/mL | 3.18 ± 1.57 h | 3.25 ± 1.97 h | 205.96 ± 75.12 ng/mL | 0.19 ± 0.05 h |  |  | O=C(/C=C/c1ccc(O)c(O)c1)O[C@@H]1C[C@@](O)(C(=O)O)C[C@@H](O)[C@@H]1O [neochlorogenic acid] | 
1780 ± 352 ng·h/mL | 13.8 ± 7.09 h | 1610 ± 349 ng·h/mL | 12 ± 0.71 h | 14.3 ± 2 h | 20.35 ± 10.26 ng/mL | 0.18 ± 0.03 h | 203.50 ± 97.03 ng/mL | 11.67 ± 0.82 h | COc1ccc(-c2oc3c(CC=C(C)C)c(O)cc(O)c3c(=O)c2O[C@@H]2O[C@@H](C)[C@H](O)[C@@H](O)[C@H]2O[C@@H]2O[C@H](CO)[C@@H](O)[C@H](O)[C@H]2O)cc1 [sagittatoside A] | 
1040 ± 202 ng·h/mL | 9.38 ± 2.11 h | 854 ± 171 ng·h/mL | 11.7 ± 1.17 h | 14.9 ± 2.09 h | 19.38 ± 9.79 ng/mL | 0.20 ± 0.04 h | 112.97 ± 44.50 ng/mL | 11.00 ± 1.67 h | COc1ccc(-c2oc3c(CC=C(C)C)c(O)cc(O)c3c(=O)c2OC2OC(C)C(O)C(O)C2OC2OCC(O)C(O)C2O)cc1 (stereo not shown) [sagittatoside B] | 
